Measured values from patent US20260262643A1, “HERBICIDAL BENZOXAZINES” (FMC CORPORATION, priority 2022, published 2026).

Key:
wheat [1] = experiment: Test C preemergence; assay type: in vivo, Triticum aestivum; conditions: preemergence, 0 to 100 scale (0 no effect, 100 complete control)
How it was run: (§1)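 Soil-applied (pre) and foliar (post, 1–2 leaf, 2–10 cm) sprays; surfactant-containing non-phytotoxic solvent vehicle; loam/sand substrate. Readout: visual % control at 10 d, greenhouse, versus untreated.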

pigweed, palmer [2] = experiment: Test C preemergence; assay type: in vivo, Amaranthus palmeri; conditions: preemergence, 0 to 100 scale (0 no effect, 100 complete control)
How it was run: as §1

barnyardgrass [3] = experiment: Test D flooded paddy test; assay type: in vivo, Echinochloa crus-galli; conditions: 250 g ai/ha, applied to paddy water, visual rating after 13 to 14 days, scale 0 to 100 (0 no effect, 100 complete control)
How it was run: (§2)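 Compounds go straight into paddy water over 2-leaf plants in pots flooded to 3 cm. Greenhouse holding lasts 13 to 14 days. Injury is scored by eye against controls from 0 (none) to 100 (complete control).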

galium = experiment: Test C postemergence; assay type: in vivo, Galium aparine; conditions: postemergence, 10 days
How it was run: as §1

blackgrass [4] = experiment: Test C preemergence; assay type: in vivo, Alopecurus myosuroides; conditions: preemergence, 0 to 100 scale (0 no effect, 100 complete control)
How it was run: as §1

ducksalad = experiment: Test D flooded paddy test; assay type: in vivo, Heteranthera limosa; conditions: 250 g ai/ha, applied to paddy water, visual rating after 13 to 14 days, scale 0 to 100 (0 no effect, 100 complete control)
How it was run: as §2

pigweed, palmer [5] = experiment: Test C postemergence; assay type: in vivo, Amaranthus palmeri; conditions: postemergence, 10 days
How it was run: as §1

ryegrass, Italian [6] = experiment: Test C preemergence; assay type: in vivo, Lolium multiflorum; conditions: preemergence, 0 to 100 scale (0 no effect, 100 complete control)
How it was run: as §1

corn [7] = experiment: Test C postemergence; assay type: in vivo, Zea mays; conditions: postemergence, 10 days
How it was run: as §1

barnyardgrass [8] = experiment: Test C preemergence; assay type: in vivo, Echinochloa crusgalli; conditions: preemergence, 0 to 100 scale (0 no effect, 100 complete control)
How it was run: as §1

blackgrass [9] = experiment: Test C postemergence; assay type: in vivo, Alopecurus myosuroides; conditions: postemergence, 10 days
How it was run: as §1

ryegrass, Italian [10] = experiment: Test C postemergence; assay type: in vivo, Lolium multiflorum; conditions: postemergence, 10 days
How it was run: as §1

horseweed = experiment: Test C postemergence; assay type: in vivo, Erigeron canadensis; conditions: postemergence, 10 days
How it was run: as §1

kochia [11] = experiment: Test C preemergence; assay type: in vivo, Bassia scoparia; conditions: preemergence, 0 to 100 scale (0 no effect, 100 complete control)
How it was run: as §1

barnyardgrass [12] = experiment: Test C postemergence; assay type: in vivo, Echinochloa crusgalli; conditions: postemergence, 10 days
How it was run: as §1

soybean [13] = experiment: Test C postemergence; assay type: in vivo, Glycine max; conditions: postemergence, 10 days
How it was run: as §1

kochia [14] = experiment: Test C postemergence; assay type: in vivo, Bassia scoparia; conditions: postemergence, 10 days
How it was run: as §1

wheat [15] = experiment: Test C postemergence; assay type: in vivo, Triticum aestivum; conditions: postemergence, 10 days
How it was run: as §1

green foxtail [16] = experiment: Test C preemergence; assay type: in vivo, Setaria viridis; conditions: preemergence, 0 to 100 scale (0 no effect, 100 complete control)
How it was run: as §1

ragweed [17] = experiment: Test C preemergence; assay type: in vivo, Ambrosia artemisiifolia; conditions: preemergence, 0 to 100 scale (0 no effect, 100 complete control)
How it was run: as §1

oat, wild = experiment: Test C postemergence; assay type: in vivo, Avena fatua; conditions: postemergence, 10 days
How it was run: as §1

rice = experiment: Test D flooded paddy test; assay type: in vivo, Oryza sativa; conditions: 250 g ai/ha, applied to paddy water, visual rating after 13 to 14 days, scale 0 to 100 (0 no effect, 100 complete control)
How it was run: as §2

corn [18] = experiment: Test C preemergence; assay type: in vivo, Zea mays; conditions: preemergence, 0 to 100 scale (0 no effect, 100 complete control)
How it was run: as §1

green foxtail [19] = experiment: Test C postemergence; assay type: in vivo, Setaria viridis; conditions: postemergence, 10 days
How it was run: as §1

sedge, umbrella = experiment: Test D flooded paddy test; assay type: in vivo, Cyperus difformis; conditions: 250 g ai/ha, applied to paddy water, visual rating after 13 to 14 days, scale 0 to 100 (0 no effect, 100 complete control)
How it was run: as §2

ragweed [20] = experiment: Test C postemergence; assay type: in vivo, Ambrosia artemisiifolia; conditions: postemergence, 10 days
How it was run: as §1

soybean [21] = experiment: Test C preemergence; assay type: in vivo, Glycine max; conditions: preemergence, 0 to 100 scale (0 no effect, 100 complete control)
How it was run: as §1

[22] = 125 g ai/ha, 0 to 100 scale, 0 no effect, 100 complete control
[23] = 500 g ai/ha, 0 to 100 scale (0 no effect, 100 complete control)

CCOCc1ncn(-c2ccc(C)c(C(=O)N3C[C@H](C)Oc4c(Cl)cccc43)c2)n1 [Compound 294]
Wheat plant response rating (wheat [1]; 500 g ai/ha): 20
Wheat plant response rating (wheat [1]; Test C, 125 g ai/ha): 0
Pigweed, Palmer plant response rating (pigweed, palmer [2]; 500 g ai/ha): 90
Pigweed, Palmer plant response rating (pigweed, palmer [2]; Test C, 125 g ai/ha): 60
Plant response rating, Barnyardgrass (Flood) (barnyardgrass [3]): 0
Plant response rating, Galium (galium; [22]): 100
Plant response rating, Galium (galium; [23]): 90
Blackgrass plant response rating (blackgrass [4]; 500 g ai/ha): 90
Blackgrass plant response rating (blackgrass [4]; Test C, 125 g ai/ha): 70
Plant response rating, Ducksalad (Flood) (ducksalad): 0
Plant response rating, Pigweed, Palmer (pigweed, palmer [5]; [22]): 40
Plant response rating, Pigweed, Palmer (pigweed, palmer [5]; [23]): 60
Ryegrass, Italian plant response rating (ryegrass, Italian [6]; 500 g ai/ha): 100
Ryegrass, Italian plant response rating (ryegrass, Italian [6]; Test C, 125 g ai/ha): 90
Plant response rating, Corn (corn [7]; [22]): 30
Plant response rating, Corn (corn [7]; [23]): 90
Barnyardgrass plant response rating (barnyardgrass [8]; 500 g ai/ha): 100
Barnyardgrass plant response rating (barnyardgrass [8]; Test C, 125 g ai/ha): 40
Plant response rating, Blackgrass (blackgrass [9]; [22]): 30
Plant response rating, Blackgrass (blackgrass [9]; [23]): 80
Plant response rating, Ryegrass, Italian (ryegrass, Italian [10]; [22]): 40
Plant response rating, Ryegrass, Italian (ryegrass, Italian [10]; [23]): 90
Plant response rating, Horseweed (horseweed; [22]): 30
Plant response rating, Horseweed (horseweed; [23]): 70
Kochia plant response rating (kochia [11]; 500 g ai/ha): 80
Kochia plant response rating (kochia [11]; Test C, 125 g ai/ha): 20
Plant response rating, Barnyardgrass (barnyardgrass [12]; [22]): 10
Plant response rating, Barnyardgrass (barnyardgrass [12]; [23]): 50
Plant response rating, Soybean (soybean [13]; [22]): 90
Plant response rating, Soybean (soybean [13]; [23]): 100
Plant response rating, Kochia (kochia [14]; [22]): 60
Plant response rating, Kochia (kochia [14]; [23]): 60
Plant response rating, Wheat (wheat [15]; [22]): 10
Plant response rating, Wheat (wheat [15]; [23]): 40
Foxtail, Green plant response rating (green foxtail [16]; 500 g ai/ha): 100
Foxtail, Green plant response rating (green foxtail [16]; Test C, 125 g ai/ha): 90
Ragweed plant response rating (ragweed [17]; 500 g ai/ha): 0
Ragweed plant response rating (ragweed [17]; Test C, 125 g ai/ha): 0
Plant response rating, Oat, Wild (oat, wild; [22]): 10
Plant response rating, Oat, Wild (oat, wild; [23]): 10
Plant response rating, Rice (Flood) (rice): 0
Corn plant response rating (corn [18]; 500 g ai/ha): 50
Corn plant response rating (corn [18]; Test C, 125 g ai/ha): 50
Plant response rating, Foxtail, Green (green foxtail [19]; [22]): 10
Plant response rating, Foxtail, Green (green foxtail [19]; [23]): 70
Plant response rating, Sedge, Umbrella (Flood) (sedge, umbrella): 0
Plant response rating, Ragweed (ragweed [20]; [22]): 50
Plant response rating, Ragweed (ragweed [20]; [23]): 70
Soybean plant response rating (soybean [21]; 500 g ai/ha): 90
Soybean plant response rating (soybean [21]; Test C, 125 g ai/ha): 20
